Assay results reported in patent US6043283A, “Tyramine compounds and their neuronal effects” (priority 1997, dated 2000).
“Also recorded” adds a separate entry of the source.

Experiments:
NTox = assay: protection of neurons against isolated NTox applied directly; format: cell-based
NMDA receptor = assay: whole cell current elicited by NMDA in Xenopus oocytes injected with NMDA R1 and R2 subunit cRNAs; format: cell-based; conditions: FIG. 34
Description: FIG. 34 is a graph shorting the % maximal current peak elicited by NMDA, octopamine and tyramine compounds in the presence of a given NMDA concentration. […].
The precise mechanism of NTox that leads to the destruction of neurons is only partially characterized. Based upon extensive testing with receptor antagonists, it has been discovered that two classes of neurotransmitter receptors are involved--the n-methyl D-aspartate (NMDA) class of […] receptors and the Muscarinic (M receptors) class of cholinergic receptors. […] […]. Further study to determine if tyramine compounds act upon the NMDA receptor itself involved expression of the NMDA receptor complex in Xenopus oocytes and measurement of ionic fluxes across the oocyte membrane that are elicited by NMDA. […] […]. […] Thus, tyramine compounds appear to have several actions, one of which is upon the NMDA receptor.

quinolinic acid (QUIN) = assay: protection of neurons against quinolinic acid; format: cell-based; conditions: QUIN (100 μM in FIG. 13)
Description: (§1) FIG. 32 is a graph showing the specificity of tyramine compounds to NTox. […]

[1] = system: HEK cells expressing NMDA1b/2A; assay: NTox killing of HEK cells expressing NMDA receptors, trypan blue; format: cell-based, human; conditions: 1 nM NTox, 24 hours
Description: Photomicrograph of trypan blue(+) control HEK cells exposed to NTox. Few blue, dead cells are noted.

[2] = system: Aβ1-42-stimulated microglia; format: cell-based, rat
How it was run: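 E18 rat hippocampal cultures, microglia depleted with saporin–ac-LDL (10 μg/ml, 12 h) on day 14, then given test substances at 10μM with or without exogenous microglia (100,000 cells) for 72 h. Neurons immunostained (NF plus MAP-2) and nuclei counted by fluorescence microscopy; survival expressed as % of parallel untreated controls.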

AMAA = assay: protection of neurons against AMAA; format: cell-based; conditions: FIG. 32
Description: as §1

[3] = system: human microglia stimulated with S5; format: cell-based;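 also: drugs applied at 10 µM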
rat microglia = assay: binding of Aβ-coupled microspheres to microglia; conditions: 4 hours at 37° C. (72 h in FIG. 23)
astroglia = format: cell-based, rat; conditions: 100 μmoles/l
Description: FIGS. 21A-D display toxic actions of synthetic Aβ peptides upon neurons. […]. There is, however, a generalized cytotoxic action by Aβ25-35 at>30 μmoles/l on both neurons (FIG. 21A) and astroglia (FIG. 21B). In the absence of microglia, none of the Aβ peptides (at 1 μmole/l) produce destruction of neurons. […] These observations point to the need to deplete neuron cultures of microglia when assessing mechanisms of Aβ toxicity. […]; FIG. 21E).
. Briefly, hippocampal cells obtained from embryonic stage 18 rat fetuses were dispersed mechanically in the presence of 0.125% trypsin and plated onto poly-L-lysine coated glass coverslips in 24 well plates at 250,000 cells per well (resulting in adhering cell densities of about 1250 cells per mm^2) in chemically-defined N2 culture media containing 5% fetal bovine serum. Gradual reduction of serum began on day 10 in vitro with daily 1:1 volume replacements with chemically-defined media, until a final concentration of 0.6% serum was achieved. […]
On day 14 of culture, immediately following saporin treatment, test substances were added to the hippocampal cultures. […] Immuno-labeled cells per field and nuclei per field were scored at 200X magnification using fluorescence microscopy. Data were expressed as % mean survival expressed in terms of parallel untreated control cultures after scoring at least 20 randomly selected fields for each of 3 coverslips.

[4] = format: physicochemical; conditions: chemically defined culture media, 37° C.; Table 2
Description: Solubility of peptides is described for chemicallydefined culture media a […]

hippocampal neurons = format: cell-based, rat; conditions: 100 μmoles/l
macrophages = assay: competition with microspheres coupled to Aβ1-42, macrophages; format: binding; conditions: 4 hours at 37° C.
kidney cells = assay: competition with microspheres coupled to Aβ1-42, kidney cells; format: binding; conditions: 4 hours at 37° C.
microglia = assay: inhibition of SpheresAβ1-42 binding to microglia; set-up: species or system rat; conditions: 10 μmoles/l, 4 hours, 37° C.
[5] = system: plaque-stimulated microglia; assay: blocking of plaque-induced microglial neurotoxicity; format: cell-based, rat; conditions: FIG. 16C

Compound	neuroprotective effects against NTox, concentration range (NTox) [nM]	inhibition of killing action of NTox applied to neurons (NTox; isolated NTox, FIGS. 13, 32)	effect on current elicited by NMDA (NMDA receptor)	protection against quinolinic acid (quinolinic acid (QUIN))	blocking of NTox killing [1]	drug blockade of neuron killing, rat microglia [2]	protection against AMAA (AMAA)	drug blockade of neuron killing, human microglia [3]	binding of peptide-coupled microspheres to microglia (rat microglia)	destruction of glia (astroglia) [%]	Solubility [4]	destruction of neurons (hippocampal neurons) [%]	competition with Aβ1-42 microspheres, macrophages (macrophages)	competition with Aβ1-42 microspheres, kidney cells (kidney cells)	inhibition of SpheresAβ1-42 binding by peptides (microglia)	blocking of plaque-induced microglial toxicity by peptides [5]	blocking of Aβ1-42 induced microglial neurotoxicity by peptides ([2]; 10 μmoles/liter peptide, 1 μmole/liter Aβ1-42)	IC50 ([2]; read-out: ED50 (blocking of Aβ1-42 induced neurotoxicity), FIG. 16B) [nM]
C[C@]12N[C@H](Cc3ccccc31)c1ccccc12 [MK-801]	~100	NTox can be blocked	could be blocked	prevented from killing neurons	could be blocked	prevented neuronal loss; also recorded: blocked neuron death	prevented from killing neurons	blocked neuron death	–	–	–	–	–	–	–	–	–	–
Aβ25-35: Aβ peptide residues 25-35 (GSNKGAIIGLM; Amyloid-beta protein 42; UniProt P05067 696-706, looked up, fragment)	–	–	–	–	–	–	–	–	little cell binding	~90	soluble	~90	–	–	–	–	–	–
Aβ10-16: Aβ peptide residues 10-16 (YEVHHQK; Amyloid-beta protein 42; UniProt P05067 681-687, looked up, fragment)	–	–	–	–	–	–	–	–	readily bind; also recorded: able to bind to microglia	–	–	–	competition occurs with the macrophages in a dose dependent manner	no changes in binding	effectively prevented	blocked plaque-induced toxicity in vitro	blocked neurotoxin production	~30
